Reference: publication PMC11003494 (Journal of Enzyme Inhibition and Medicinal Chemistry, 2023)

What was measured:
[1] = target: hCA XII (Homo sapiens, UniProt O43570); assay: Stopped-flow CA catalysed CO2 hydration inhibition assay, hCA XII; assay type: biochemical
[2] = target: hCA IX (Homo sapiens, UniProt Q16790); assay: biochemical
[3] = target: hCA II (Homo sapiens, UniProt P00918); assay: Stopped-flow CA catalysed CO2 hydration inhibition assay, hCA II; assay type: biochemical
[4] = target: hCA I (Homo sapiens, UniProt P00915); assay: Stopped-flow CA catalysed CO2 hydration inhibition assay, hCA I; assay type: biochemical
Sequence of hCA I (P00915 whole entry): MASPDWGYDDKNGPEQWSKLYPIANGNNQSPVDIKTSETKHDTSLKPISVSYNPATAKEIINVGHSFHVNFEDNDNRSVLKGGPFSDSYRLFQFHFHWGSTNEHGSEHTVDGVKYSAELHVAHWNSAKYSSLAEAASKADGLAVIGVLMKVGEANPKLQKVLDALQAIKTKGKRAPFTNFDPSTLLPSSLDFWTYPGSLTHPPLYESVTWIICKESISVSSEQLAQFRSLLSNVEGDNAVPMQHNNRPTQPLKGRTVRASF

Sequence of hCA XII (O43570 30-289 limits assumed): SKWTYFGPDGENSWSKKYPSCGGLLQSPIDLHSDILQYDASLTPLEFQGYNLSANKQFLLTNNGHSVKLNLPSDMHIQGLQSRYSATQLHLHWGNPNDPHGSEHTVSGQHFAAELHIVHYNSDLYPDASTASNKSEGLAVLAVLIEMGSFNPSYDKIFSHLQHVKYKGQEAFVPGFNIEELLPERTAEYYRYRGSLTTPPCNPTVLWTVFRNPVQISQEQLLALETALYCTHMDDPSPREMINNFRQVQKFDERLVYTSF

Ki [1]	Ki [2]	Ki [3]	Ki [4]	Structure (SMILES)
0.8 µM	0.46 µM	> 100 µM	> 100 µM	Cc1c(CC(=O)O)c(=O)oc2c(C)c3occ(-c4ccc(F)cc4)c3cc12 [EMAC10164d, 2-(3-(4-Fluorophenyl)-5,9-dimethyl-7-oxo-7H-furo[3,2-g]chromen-6-yl)acetic acid]
2.41 µM	> 100 µM	> 100 µM	> 100 µM	COC(=O)Cc1c(C)c2ccc(OCC(=O)c3ccc(Cl)cc3)c(C)c2oc1=O [EMAC10163j, Methyl 2-(7-(2-(4-chlorophenyl)-2-oxoethoxy)-4,8-dimethyl-2-oxo-2H-chromen-3-yl)acetate]
6.04 µM	2.39 µM	> 100 µM	> 100 µM	COC(=O)Cc1c(C)c2ccc(OCC(=O)c3ccc(F)cc3)c(C)c2oc1=O [EMAC10163d, Methyl 2-(7-(2-(4-fluorophenyl)-2-oxoethoxy)-4,8-dimethyl-2-oxo-2H-chromen-3-yl)acetate]
7.82 µM	> 100 µM	> 100 µM	> 100 µM	COC(=O)Cc1c(C)c2ccc(OCC(=O)c3cccc([N+](=O)[O-])c3)c(C)c2oc1=O [EMAC10163f, Methyl 2-(4,8-dimethyl-7-(2-(3-nitrophenyl)-2-oxoethoxy)-2-oxo-2H-chromen-3-yl)acetate]
4.59 µM	> 100 µM	> 100 µM	> 100 µM	COc1ccc(-c2coc3c(C)c4oc(=O)c(CC(=O)O)c(C)c4cc23)cc1 [EMAC10164b, 2-(3-(4-Methoxyphenyl)-5,9-dimethyl-7-oxo-7H-furo[3,2-g]chromen-6-yl)acetic acid]
4.44 µM	> 100 µM	> 100 µM	> 100 µM	Cc1c(CC(=O)O)c(=O)oc2c(C)c3occ(-c4ccc(Br)cc4)c3cc12 [EMAC10164c, 2-(3-(4-Bromophenyl)-5,9-dimethyl-7-oxo-7H-furo[3,2-g]chromen-6-yl)acetic acid]
4.86 µM	> 100 µM	> 100 µM	> 100 µM	COC(=O)Cc1c(C)c2ccc(OCC(=O)c3cccc(OC)c3)c(C)c2oc1=O [EMAC10163k, Methyl 2-(7-(2-(3-methoxyphenyl)-2-oxoethoxy)-4,8-dimethyl-2-oxo-2H-chromen-3-yl)acetate]
3.38 µM	3.18 µM	> 100 µM	> 100 µM	Cc1c(CC(=O)O)c(=O)oc2c(C)c3occ(-c4ccccc4)c3cc12 [EMAC10164i, 2-(5,9-Dimethyl-7-oxo-3-phenyl-7H-furo[3,2-g]chromen-6-yl)acetic acid]
6.37 µM	4.27 µM	> 100 µM	> 100 µM	Cc1c(CC(=O)O)c(=O)oc2c(C)c3occ(-c4ccc(F)cc4F)c3cc12 [EMAC10164h, 2-(3-(2,4-Difluorophenyl)-5,9-dimethyl-7-oxo-7H-furo[3,2-g]chromen-6-yl)acetic acid]
0.47 µM	0.53 µM	> 100 µM	> 100 µM	COC(=O)Cc1c(C)c2ccc(OCC(=O)c3ccc(OC)cc3)c(C)c2oc1=O [EMAC10163b, Methyl 2-(7-(2-(4-methoxyphenyl)-2-oxoethoxy)-4,8-dimethyl-2-oxo-2H-chromen-3-yl)acetate]
5.25 µM	> 100 µM	> 100 µM	> 100 µM	COC(=O)Cc1c(C)c2ccc(OCC(=O)c3ccccc3)c(C)c2oc1=O [EMAC10163i, Methyl 2-(4,8-dimethyl-2-oxo-7-(2-oxo-2-phenylethoxy)-2H-chromen-3-yl)acetate]
2.52 µM	2.98 µM	> 100 µM	> 100 µM	COC(=O)Cc1c(C)c2ccc(OCC(=O)c3ccc(C)cc3)c(C)c2oc1=O [EMAC10163a, Methyl 2‐{4,8‐dimethyl‐7‐[2‐(4‐methylphenyl)‐2‐oxoethoxy]‐2‐oxo‐2H‐chromen‐3‐yl}acetate]
7.86 µM	3.22 µM	> 100 µM	> 100 µM	Cc1c(CC(=O)O)c(=O)oc2c(C)c3occ(-c4ccc(Cl)cc4)c3cc12 [EMAC10164j, 2-(3-(4-Chlorophenyl)-5,9-dimethyl-7-oxo-7H-furo[3,2-g]chromen-6-yl)acetic acid]
5.56 µM	4.51 µM	> 100 µM	> 100 µM	COC(=O)Cc1c(C)c2ccc(OCC(=O)c3ccc(F)cc3F)c(C)c2oc1=O [EMAC10163h, Methyl 2-(7-(2-(2,4-difluorophenyl)-2-oxoethoxy)-4,8-dimethyl-2-oxo-2H-chromen-3-yl)acetate]
5.43 µM	4.16 µM	> 100 µM	> 100 µM	COC(=O)Cc1c(C)c2ccc(OCC(=O)c3ccc(Br)cc3)c(C)c2oc1=O [EMAC10163c, Methyl 2-(7-(2-(4-bromophenyl)-2-oxoethoxy)-4,8-dimethyl-2-oxo-2H-chromen-3-yl)acetate]
0.82 µM	0.71 µM	> 100 µM	> 100 µM	Cc1c(CC(=O)O)c(=O)oc2c(C)c3occ(-c4ccc(-c5ccccc5)cc4)c3cc12 [EMAC10164g, 2-(3-([1,1′-Biphenyl]-4-yl)-5,9-dimethyl-7-oxo-7H-furo[3,2-g]chromen-6-yl)acetic acid]
3.66 µM	4.16 µM	> 100 µM	> 100 µM	COc1cccc(-c2coc3c(C)c4oc(=O)c(CC(=O)O)c(C)c4cc23)c1 [EMAC10164k, 2-(3-(3-Methoxyphenyl)-5,9-dimethyl-7-oxo-7H-furo[3,2-g]chromen-6-yl)acetic acid]
7.84 µM	4.64 µM	> 100 µM	> 100 µM	COC(=O)Cc1c(C)c2ccc(OCC(=O)c3ccc([N+](=O)[O-])cc3)c(C)c2oc1=O [EMAC10163e, Methyl 2-(4,8-dimethyl-7-(2-(4-nitrophenyl)-2-oxoethoxy)-2-oxo-2H-chromen-3-yl)acetate]
8.88 µM	> 100 µM	> 100 µM	> 100 µM	COC(=O)Cc1c(C)c2ccc(OCC(=O)c3ccc(-c4ccccc4)cc3)c(C)c2oc1=O [EMAC10163g, Methyl 2-(7-(2-([1,1′-biphenyl]-4-yl)-2-oxoethoxy)-4,8-dimethyl-2-oxo-2H-chromen-3-yl)acetate]
4.09 µM	> 100 µM	> 100 µM	> 100 µM	Cc1ccc(-c2coc3c(C)c4oc(=O)c(CC(=O)O)c(C)c4cc23)cc1 [EMAC10164a, 2-(5,9-Dimethyl-7-oxo-3-(p-tolyl)-7H-furo[3,2-g]chromen-6-yl)acetic acid]
